# Measurements from ChEMBL document CHEMBL1155557, “New quinoline alkaloids from Ruta chalepensis” (2000).
# Legend:
# Type in all cases: functional
# Bacillus subtilis = assay: Antibacterial activity against Bacillus subtilis by microtiter plate assay
# Candida albicans = assay: […] activity against Candida albicans by microtiter plate assay
# [1] = tested on: Mycolicibacterium smegmatis; assay: Antibacterial activity against Mycobacterium smegmatis by microtiter plate assay
# Staphylococcus aureus = assay: Antibacterial activity against Staphylococcus aureus by microtiter plate assay
MIC (Bacillus subtilis),MIC (Candida albicans),MIC [1],MIC (Staphylococcus aureus),SMILES
50 µg/mL,50 µg/mL,50 µg/mL,50 µg/mL,COc1ccc2nc3occc3c(OC)c2c1 [PTELEINE]
100 µg/mL,,100 µg/mL,,CC(O)CCCCc1ccc2c(c1)OCO2 (configuration not stated) [MOSKACHAN C]
100 µg/mL,,100 µg/mL,,COc1ccc2c(OC)c3ccoc3nc2c1OC [SKIMMIANINE]
100 µg/mL,,100 µg/mL,,Cn1c2ccccc2c(=O)c2c(O)cc3c(c21)CC(C(C)(O)CCl)O3 (configuration not stated) [ISOGRAVACRIDONECHLORINE]

SMILES,MIC (Bacillus subtilis),MIC (Candida albicans),MIC [1],MIC (Staphylococcus aureus)
COc1c2ccccc2nc2occc12 [DICTAMNINE],100 µg/mL,,100 µg/mL,
